{"source": "patent EP0721336B1", "about": "“BENZAZOLE COMPOUNDS FOR USE IN THERAPY” (CANCER RESEARCH CAMPAIGN TECHNOLOGY LIMITED, priority 1993, dated 1995)", "key": {"EGFR tyrosine kinase": {"target": "EGFR tyrosine kinase (Homo sapiens, UniProt P00533)", "sequence (P00533 25-1210)": "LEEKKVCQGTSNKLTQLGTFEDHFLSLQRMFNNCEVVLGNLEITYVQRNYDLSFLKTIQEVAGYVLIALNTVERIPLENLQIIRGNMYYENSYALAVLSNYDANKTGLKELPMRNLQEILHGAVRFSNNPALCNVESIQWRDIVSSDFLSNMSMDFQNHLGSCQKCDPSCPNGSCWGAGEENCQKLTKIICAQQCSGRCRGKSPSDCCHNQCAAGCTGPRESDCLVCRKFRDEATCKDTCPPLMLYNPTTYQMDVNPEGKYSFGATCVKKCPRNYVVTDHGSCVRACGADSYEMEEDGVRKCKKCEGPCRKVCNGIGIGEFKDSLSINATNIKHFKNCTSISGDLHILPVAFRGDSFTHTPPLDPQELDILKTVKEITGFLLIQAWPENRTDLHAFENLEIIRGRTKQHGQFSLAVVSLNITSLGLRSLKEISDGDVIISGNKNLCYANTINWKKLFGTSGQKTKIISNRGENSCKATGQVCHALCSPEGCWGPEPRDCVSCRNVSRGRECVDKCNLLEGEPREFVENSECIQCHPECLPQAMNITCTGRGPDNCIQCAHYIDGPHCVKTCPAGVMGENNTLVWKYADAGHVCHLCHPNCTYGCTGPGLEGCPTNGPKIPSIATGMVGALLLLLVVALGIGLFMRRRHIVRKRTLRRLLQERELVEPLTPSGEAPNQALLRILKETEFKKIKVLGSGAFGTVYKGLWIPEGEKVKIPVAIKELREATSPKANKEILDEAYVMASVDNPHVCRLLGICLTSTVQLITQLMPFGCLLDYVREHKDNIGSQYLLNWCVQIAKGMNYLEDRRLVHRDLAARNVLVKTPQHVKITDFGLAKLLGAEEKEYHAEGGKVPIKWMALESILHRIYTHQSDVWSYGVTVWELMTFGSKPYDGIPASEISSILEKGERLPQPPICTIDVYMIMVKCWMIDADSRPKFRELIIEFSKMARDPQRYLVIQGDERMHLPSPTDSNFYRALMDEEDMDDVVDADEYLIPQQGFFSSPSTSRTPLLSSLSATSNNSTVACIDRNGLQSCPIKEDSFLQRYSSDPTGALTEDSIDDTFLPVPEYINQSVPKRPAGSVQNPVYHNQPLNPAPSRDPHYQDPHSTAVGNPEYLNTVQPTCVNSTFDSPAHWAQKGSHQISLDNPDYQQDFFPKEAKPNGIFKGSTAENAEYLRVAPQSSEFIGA", "assay": "Western blot analyses with anti-phosphotyrosine primary antibody", "type": "cell-based", "conditions": "unstimulated or EGF stimulated"}, "A431 cells": {"test_system": "A431 cells", "assay": "In vitro growth assay", "type": "cell-based", "conditions": "range of concentrations 0.1nM-10µM", "method": "No effect was observed, for example, on the growth of A431 cells as a result of exposure to CJM 126 over a range of concentrations (0.1nM-10µM).\nIn carrying out the above in vitro studies, the method used for conducting the cytotoxicity assays was generally substantially as follows: • Cells were maintained in a continuous logarithmic culture in Dulbecco's medium supplemented with 10% fetal calf serum and penicillin (100 IU/ml) and streptomycin (100 µg/ml). The cells were mildly trypsinized for passage and for use in assays. On day zero, 100µl of trypsinized tumour cells (1 x 10^4/ml) were plated in the wells of 96-well flat-bottom microtiter plates. […] On day two 50µl of the highest drug concentration was added to the wells of column 12 and from there serially diluted 3-fold to column 1 by serial transfer of 50µl using an 8-channel micropipette. The final volume of column 1 was adjusted to 100µl. No additions were made to the wells of rows A and B, which served as controls. The plates were further incubated for 5 days at 37°C and 5% CO2 in air. […] The plates were kept at 4°C overnight before reading on an inverted microscope equipped with an automated scanning stage. Fluorescence intensity was measured in arbitrary units by a photomultiplier. […]"}, "P388 cells": {"test_system": "P388 cells", "assay": "In vitro cytotoxicity assay", "type": "cell-based", "conditions": "Mus musculus", "method": "(§1) In carrying out the above in vitro studies, the method used for conducting the cytotoxicity assays was generally substantially as follows: • Cells were maintained in a continuous logarithmic culture in Dulbecco's medium supplemented with 10% fetal calf serum and penicillin (100 IU/ml) and streptomycin (100 µg/ml). The cells were mildly trypsinized for passage and for use in assays. On day zero, 100µl of trypsinized tumour cells (1 x 10^4/ml) were plated in the wells of 96-well flat-bottom microtiter plates. […] On day two 50µl of the highest drug concentration was added to the wells of column 12 and from there serially diluted 3-fold to column 1 by serial transfer of 50µl using an 8-channel micropipette. The final volume of column 1 was adjusted to 100µl. No additions were made to the wells of rows A and B, which served as controls. The plates were further incubated for 5 days at 37°C and 5% CO2 in air. Each compound was tested in duplicate. • On day 7 the test was terminated by the addition of 100µl saline containing 0.002% w/v propidium iodide (Sigma), 0.3% drawing ink (Staedtler \"Marsmatic 745\" - Trade Mark) and 0.5% Triton X-100. The plates were kept at 4°C overnight before reading on an inverted microscope equipped with an automated scanning stage. Fluorescence intensity was measured in arbitrary units by a photomultiplier. […]"}, "[1]": {"test_system": "P388R8/22 (multidrug resistant) cells", "assay": "In vitro cytotoxicity assay", "type": "cell-based", "method": "as §1"}, "[2]": {"test_system": "MCF-7 mammary carcinoma cells", "assay": "In vitro cytotoxicity assay (cell growth, propidium iodide fluorescence)", "type": "cell-based, human", "conditions": "for IC50: Homo sapiens; for effect on cell growth: later series of experiments", "text": "(§2) This is illustrated in Tables 1 and 2 at the end of the present description which show in vitro test results obtained in various sets of experiments for the cytotoxic activity of this compound CJM 126 against a range of human tumour cell lines, expressed in terms of IC50 values (concentration or dosage required to reduce cell growth or proliferation by 50%) calculated from dose-effect curves plotted for cultures of the cells in question.\n(§3) In carrying out the above in vitro studies, the method used for conducting the cytotoxicity assays was generally substantially as follows: • Cells were maintained in a continuous logarithmic culture in Dulbecco's medium supplemented with 10% fetal calf serum and penicillin (100 IU/ml) and streptomycin (100 µg/ml). The cells were mildly trypsinized for passage and for use in assays. On day zero, 100µl of trypsinized tumour cells (1 x 10^4/ml) were plated in the wells of 96-well flat-bottom microtiter plates. […] On day two 50µl of the highest drug concentration was added to the wells of column 12 and from there serially diluted 3-fold to column 1 by serial transfer of 50µl using an 8-channel micropipette. The final volume of column 1 was adjusted to 100µl. No additions were made to the wells of rows A and B, which served as controls. The plates were further incubated for 5 days at 37°C and 5% CO2 in air. Each compound was tested in duplicate. • On day 7 the test was terminated by the addition of 100µl saline containing 0.002% w/v propidium iodide (Sigma), 0.3% drawing ink (Staedtler \"Marsmatic 745\" - Trade Mark) and 0.5% Triton X-100. The plates were kept at 4°C overnight before reading on an inverted microscope equipped with an automated scanning stage. Fluorescence intensity was measured in arbitrary units by a photomultiplier. An HP-87 computer controlled the movement of the stage and also collected and processed the data from the multiplier. • For each compound tested a dose-response curve was obtained and the IC50 value (the drug concentration at 50% inhibition of cell growth) was calculated."}, "[3]": {"test_system": "NCI (National Cancer Institute, U.S.A.) panel of human tumour cell lines", "assay": "NCI tumour cell line panel test", "type": "cell-based", "conditions": "panel contains no breast cancer cell lines"}, "EGFR": {"target": "EGFR (Homo sapiens, UniProt P00533)", "sequence (P00533 25-1210)": "as above", "assay": "Displacement of iodinated EGF from EGFR", "type": "binding", "conditions": "1µM, 10µM and 100µM"}, "[4]": {"test_system": "human MDA 468 xenograft tumours", "assay": "In vivo activity against MDA 468 xenograft", "design": "species or system nude mice", "method": "The effect of CJM 126 (0.1, 0.01 and 0.001mg/kg) has also been investigated in nude mice bearing human MDA 468 xenograft tumours."}, "Aqueous solubility": {"assay": "Aqueous solubility", "type": "physicochemical", "conditions": "water", "method": "The latter was first obtained (as yellow crystals, m.p. 229-231°C, crystallised from methanol or dimethyl formamide) either via Route C (71% yield) from 2-aminothiophenol and 4-nitrobenzoyl chloride, or via Route D (10% yield) from the corresponding thiobenzanilide and potassium ferricyanide."}, "HT29 colon carcinoma": {"test_system": "HT29 colon carcinoma", "assay": "In vitro cytotoxicity assay", "type": "cell-based", "conditions": "Homo sapiens, HT-29", "text": "as §2, §3"}, "T24 bladder carcinoma": {"test_system": "T24 bladder carcinoma", "assay": "In vitro cytotoxicity assay", "type": "cell-based", "conditions": "Homo sapiens", "text": "as §2, §3"}}, "note": "Like-named read-outs stand apart in the source and are kept apart here.", "data": [{"smiles": "Nc1ccc(-c2nc3ccccc3s2)cc1", "note": "[CJM 126, 2-(4-aminophenyl)benzothiazole]", "values": [{"measurement": "inhibition of EGFR tyrosine kinase activity", "setting": "EGFR tyrosine kinase", "value": "no apparent inhibition"}, {"measurement": "effect on growth", "setting": "A431 cells", "value": "No effect"}, {"measurement": "IC50", "setting": "P388 cells", "value": 27, "unit": "µM"}, {"measurement": "IC50", "setting": "[1]", "value": 52, "unit": "µM"}, {"measurement": "IC50", "setting": "[2]; MCF7, 1st series of experiments, initial decrease in cell growth, read-out: IC50", "value": "~0.002", "unit": "µg/mL"}, {"measurement": "IC50", "setting": "[2]; MCF7, MCF 7-wt, phase 1, after drug removal, read-out: observed IC50 after drug removal", "value": 0.00218, "unit": "µM"}, {"measurement": "IC50", "setting": "[2]; MCF7, MCF 7-wt, read-out: estimated IC50", "value": "~0.0029", "unit": "µM"}, {"measurement": "IC50", "setting": "[2]; MCF7, first series of experiments, second decrease at even greater doses, read-out: IC50 of second decrease (biphasic dose response)", "value": "~2", "unit": "µg/mL"}, {"measurement": "IC50", "setting": "[2]; MCF-wt, column A, read-out: MCF-wt A IC50 at sub-micromolar concentrations", "value": 0.003, "unit": "µM"}, {"measurement": "inhibition of growth", "setting": "[2]; MCF 7-wt, 1% FCS, presence of EGF, all concentrations 1nM-10µM", "value": "greater than 85%"}, {"measurement": "times more sensitive than other human cell lines tested", "setting": "[2]; first series of experiments, Table 1", "value": "about 3000 times"}, {"measurement": "estimated IC50", "setting": "[2]; in the presence of 1% FCS", "value": "picomolar range"}, {"measurement": "proliferation of colonies (2nd phase)", "setting": "[2]; in the presence of 1% FCS, 3, 10, 30µM", "value": "no proliferation of colonies"}, {"measurement": "effect on cell growth", "setting": "[2]; 30nM and 100nM", "value": "maximum growth inhibition"}, {"measurement": "effect on cell growth", "setting": "[2]; exposure to 1µM, 3µM and 10µM", "value": "loss of growth arrest"}, {"measurement": "toxicity in panel", "setting": "[3]", "value": "essentially non-toxic"}, {"measurement": "displacement of iodinated EGF from EGFR", "setting": "EGFR", "value": "no ability to displace"}, {"measurement": "Tumour weight (g)", "setting": "[4]; 0.1mg/kg daily", "value": ".30 + .07 g"}, {"measurement": "Cross section tumour area (mm)", "setting": "[4]; 0.1mg/kg daily, Day 5", "value": "97.75 ± 9.55", "unit": "mm"}, {"measurement": "Cross section tumour area (mm)", "setting": "[4]; 0.1mg/kg daily, Day 12", "value": "71.07 ± 7.2", "unit": "mm"}, {"measurement": "Cross section tumour area (mm)", "setting": "[4]; 0.1mg/kg daily, Day 15", "value": "82.17 + 1058 mm"}, {"measurement": "Cross section tumour area (mm)", "setting": "[4]; 0.1mg/kg daily, Day 19", "value": "88.84 ± 3.69", "unit": "mm"}, {"measurement": "Cross section tumour area (mm)", "setting": "[4]; 0.1mg/kg daily, Day 22", "value": "105.66 ± 5.49", "unit": "mm"}, {"measurement": "Cross section tumour area (mm)", "setting": "[4]; 0.1mg/kg daily, Day 26", "value": "124.55 ± 7.90", "unit": "mm"}, {"measurement": "Cross section tumour area (mm)", "setting": "[4]; 0.1mg/kg daily, Day 29", "value": "182.15 ± 14.79", "unit": "mm"}, {"measurement": "Cross section tumour area (mm)", "setting": "[4]; 0.1mg/kg daily, Day 32", "value": "196.66 ± 18.65", "unit": "mm"}, {"measurement": "Tumour weight (g)", "setting": "[4]; .001mg/kg daily", "value": ".19 + .08 g"}, {"measurement": "Cross section tumour area (mm)", "setting": "[4]; .001mg/kg daily, Day 5", "value": "85.54 ± 19.44", "unit": "mm"}, {"measurement": "Cross section tumour area (mm)", "setting": "[4]; .001mg/kg daily, Day 12", "value": "52.93 ± 2.65", "unit": "mm"}, {"measurement": "Cross section tumour area (mm)", "setting": "[4]; .001mg/kg daily, Day 15", "value": "67.81 ± 12.92", "unit": "mm"}, {"measurement": "Cross section tumour area (mm)", "setting": "[4]; .001mg/kg daily, Day 19", "value": "64.8 ± 17.35", "unit": "mm"}, {"measurement": "Cross section tumour area (mm)", "setting": "[4]; .001mg/kg daily, Day 22", "value": "75.12 ± 20.05", "unit": "mm"}, {"measurement": "Cross section tumour area (mm)", "setting": "[4]; .001mg/kg daily, Day 26", "value": "81.53 ± 26.16", "unit": "mm"}, {"measurement": "Cross section tumour area (mm)", "setting": "[4]; .001mg/kg daily, Day 29", "value": "114.65 + 3457 mm"}, {"measurement": "Cross section tumour area (mm)", "setting": "[4]; .001mg/kg daily, Day 32", "value": "129.06 ± 32.08", "unit": "mm"}, {"measurement": "Tumour weight (g)", "setting": "[4]; .01mg/kg daily", "value": ".29 + .15 g"}, {"measurement": "Cross section tumour area (mm)", "setting": "[4]; .01mg/kg daily, Day 5", "value": "120.78 ± 5.83", "unit": "mm"}, {"measurement": "Cross section tumour area (mm)", "setting": "[4]; .01mg/kg daily, Day 12", "value": "71.65 ± 11.67", "unit": "mm"}, {"measurement": "Cross section tumour area (mm)", "setting": "[4]; .01mg/kg daily, Day 15", "value": "78.21 ± 6.69", "unit": "mm"}, {"measurement": "Cross section tumour area (mm)", "setting": "[4]; .01mg/kg daily, Day 19", "value": "98.03 ± 33.51", "unit": "mm"}, {"measurement": "Cross section tumour area (mm)", "setting": "[4]; .01mg/kg daily, Day 22", "value": "117.02 ± 42.1", "unit": "mm"}, {"measurement": "Cross section tumour area (mm)", "setting": "[4]; .01mg/kg daily, Day 26", "value": "131.58 ± 23.41", "unit": "mm"}, {"measurement": "Cross section tumour area (mm)", "setting": "[4]; .01mg/kg daily, Day 29", "value": "164.90 ± 37.18", "unit": "mm"}, {"measurement": "Cross section tumour area (mm)", "setting": "[4]; .01mg/kg daily, Day 32", "value": "191.68 ± 45.65", "unit": "mm"}, {"measurement": "solubility", "setting": "Aqueous solubility", "value": "~3.8", "unit": "µg/mL"}, {"measurement": "IC50", "setting": "HT29 colon carcinoma; 1st series of experiments", "value": 7.57, "unit": "µg/mL"}, {"measurement": "IC50", "setting": "HT29 colon carcinoma; 2nd series of experiments", "value": 33, "unit": "µM"}, {"measurement": "IC50", "setting": "T24 bladder carcinoma; 1st series of experiments", "value": 16.9, "unit": "µg/mL"}, {"measurement": "IC50", "setting": "T24 bladder carcinoma; 2nd series of experiments", "value": 75, "unit": "µM"}]}]}
